According to ChEMBL document CHEMBL3779779, “Discovery of non-peptide small molecular CXCR4 antagonists as anti-HIV agents: Recent advances and future opportunities” (Eur J Med Chem, 2016):
pEC50: −log10 of the molar value.

Columns and labels:
[1] = tested on: Human immunodeficiency virus 1; experiment: Antiviral activity against HIV1 3B infected in human MT4 cells assessed as reduction in virus-induced cytopathic effect after 5 days by MTT assay; type: functional, organism-based; conditions: Human immunodeficiency virus 1, 3B, MT4, 120 h
[2] = Selectivity index, ratio of CC50 for human MT4 cells to EC50 for HIV1 3B infected in human MT4 cells; type: toxicity, cell-based; conditions: read-out: Ratio CC50/EC50
[3] = biological target: C-X-C chemokine receptor type 4 (Homo sapiens, UniProt P61073); experiment: Displacement of [125I]SDF-1 from human CXCR4 expressed in HEK293 cell membrane; type: cell membranes
Chain of C-X-C chemokine receptor type 4 (P61073 whole entry): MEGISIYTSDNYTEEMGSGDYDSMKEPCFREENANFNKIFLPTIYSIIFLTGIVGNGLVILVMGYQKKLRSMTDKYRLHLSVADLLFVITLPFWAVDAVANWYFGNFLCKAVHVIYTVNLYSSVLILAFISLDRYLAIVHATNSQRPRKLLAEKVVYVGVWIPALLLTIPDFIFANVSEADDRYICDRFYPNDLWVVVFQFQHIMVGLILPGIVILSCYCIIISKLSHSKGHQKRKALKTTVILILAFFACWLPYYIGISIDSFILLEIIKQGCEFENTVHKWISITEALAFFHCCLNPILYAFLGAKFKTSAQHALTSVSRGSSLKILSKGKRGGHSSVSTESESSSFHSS

[4] = tested on: Human immunodeficiency virus; experiment: Antiviral activity against HIV LAV Clade B infected in human MT4 cells assessed as inhibition of syncytia formation preincubated with cells for 1 hr followed by viral infection […] by inverted optical microscopic analysis; type: functional, organism-based; conditions: Human immunodeficiency virus 1, LAV Clade B
[5] = Selectivity index, ratio of CC50 for human MT4 cells to EC50 for HIV LAV Clade B infected in human MT4 cells; type: toxicity, cell-based; conditions: read-out: Ratio CC50/EC50
[6] = tested on: Human immunodeficiency virus 1; experiment: Antiviral activity against HIV1 clinical isolate X4 by cell based assay; type: functional, organism-based; conditions: Human immunodeficiency virus 1, isolate X4
[7] = tested on: Human immunodeficiency virus 1; experiment: Antiviral activity against HIV1 clinical isolate R5/X4 by cell based assay; type: functional, organism-based; conditions: Human immunodeficiency virus 1, isolate R5/X4
[8] = tested on: Human immunodeficiency virus 1; experiment: Antiviral activity against HIV1 clinical isolate R5 by cell based assay; type: functional, organism-based; conditions: Human immunodeficiency virus 1, isolate R5
[9] = tested on: Human immunodeficiency virus 1; experiment: Antiviral activity against HIV1 NL4-3 clinical isolate X4 infected in human MT4 cells assessed as reduction in virus-induced cytopathic effect after 5 days by MTT assay; type: functional, organism-based; conditions: Human immunodeficiency virus 1, NL4-3 isolate X4, MT4, 120 h
[10] = tested on: Human immunodeficiency virus 1; experiment: Antiviral activity against HIV1 infected in human MT4 cells assessed as reduction in virus-induced cytopathic effect after 4 to 5 days by MTS assay; type: functional, organism-based; conditions: Human immunodeficiency virus 1, MT4
[11] = Elimination half life in dog plasma at 0.41 mg/kg, iv and 0.41 to 2.05 mg/kg, sc by LC-MS/MS analysis; type: ADME, organism-based, Canis lupus familiaris; conditions: read-out: beta t1/2 (converted)
[12] = Tmax in Swiss Webster mouse plasma at 25 mg/kg, sc by LC-MS/MS analysis; type: ADME, organism-based
[13] = tested on: Human immunodeficiency virus 2; experiment: Antiviral activity against HIV2 ROD infected in human MT4 cells assessed as reduction in virus-induced cytopathic effect after 5 days by MTT assay; conditions: Human immunodeficiency virus 2, ISOLATE ROD, MT4, 120 h

For `c1cc(CN2CCCSCCSCCCNCC2)ccc1CN1CCCSCCSCCCNCC1`, the pEC50 [1] was less than 5.17.

`c1cc(CN2CCCOCCOCCCNCC2)ccc1CN1CCCOCCOCCCNCC1` showed a pEC50 [1] of less than 3.44.

`C1CNCCNCCCN[C@H]([C@@H]2CNCCCNCCNCCCN2)CNC1` showed a selectivity ratio [2] greater than 1000 and a pEC50 [1] of 7.00.

In the case of `C1CNCCNCCCN(CCCN2CCCNCCNCCCNCC2)CCNC1`, the selectivity ratio [2] was greater than 2500 and the pEC50 [1] was 6.61.

`c1ccc2c(NC3CCNCC3)nc(NCc3ccc(CNCCCNC4CCCCC4)cc3)nc2c1` showed a pEC50 [3] of 7.16.

Work on `Cc1cn([C@H]2C[C@H](N=[N+]=[N-])[C@@H](COC(=O)CCCCN3CCCN(Cc4ccc(CN5CCCNCCNCCCNCC5)cc4)CCNCCCNCC3)O2)c(=O)[nH]c1=O` yielded a pEC50 [4] of 8.30 and a selectivity ratio [5] of 15000.

Work on `c1cc(CN2CCCNCCOCCCNCC2)ccc1CN1CCCNCCOCCCNCC1` yielded a pEC50 [1] of 5.35.

Work on `Cc1cn([C@H]2C[C@H](N=[N+]=[N-])[C@@H](COC(=O)CCCCN3CCCNCCNCCCNCC3)O2)c(=O)[nH]c1=O` yielded a pEC50 [4] of 8.00.

For `CC(C)CN(CCC[C@H](NC(=O)c1ccc(CNCc2ncc[nH]2)cc1)C(=O)N[C@@H](C)c1cccc2ccccc12)CC(C)C`, the pEC50 [1] was 8.17.

For `Cc1cn([C@H]2C[C@H](N=[N+]=[N-])[C@@H](COC(=O)CCCCN3CCCN(Cc4ccc(CN5CCCN(C(=O)OC(C)(C)C)CCN(C(=O)OC(C)(C)C)CCCN(C(=O)OC(C)(C)C)CC5)cc4)CCN(C(=O)OC(C)(C)C)CCCN(C(=O)OC(C)(C)C)CC3)O2)c(=O)[nH]c1=O`, the pEC50 [4] was 8.30 and the selectivity ratio [5] was 1000.

Compound `c1cc(CN2CCCNCCCCCCNCC2)ccc1CN1CCCNCCCCCCNCC1` has a pEC50 [1] of 5.02.

`Clc1cc(CN2CCCNCCNCCCNCC2)cc(Cl)n1` showed a pEC50 [6] of 5.92, a pEC50 [7] of 5.92 and a pEC50 [8] of 5.92.

`CCCN(CCC)CCCCNC(=O)c1ccc(CN(Cc2ncc[nH]2)Cc2ncc[nH]2)cc1` gave a pEC50 [1] of 8.40.

Work on `Cn1c(CN(CCN2CCCCC2)CC2CCCN(C3CCCC3)C2)nc2ccccc21` (centres undefined) yielded a pEC50 [9] of 6.22.

`c1ccc(CNCc2ccc(CN3CCCNCCNCCCNCC3)cc2)nc1` showed a pEC50 [10] of 9.00, a half-life [11] of 93.6 min and a Tmax [12] of 15 min.

Compound `c1cc(CN2CCCNCCNCCCNCC2)ccc1CN1CCCNCCNCCCNCC1` [PLERIXAFOR] has a pEC50 [13] of 8.70.
